Results on 44 molecules are retold here after ChEMBL document CHEMBL5352388 (Eur J Med Chem, 2022).

The structures appear in SMILES notation.

For orientation: IC50 means the concentration needed to halve the response being measured.

In series [1] the target is Lysine-specific histone demethylase 1A (Homo sapiens, UniProt O60341).
Description: Inhibition of recombinant human LSD1 using fluorometric substrate by HRP based fluorimeter microplate reader assay
The subject of series [2] is HeLa. The experiment in a line: Antiproliferative activity against human HeLa cells assessed as inhibition of cell growth incubated for 72 hrs by CCK-8 assay. The format is functional, cell-based. A general note: Tetrazolium dyes change colour on reduction, which living cells bring about.
In series [3] the test system is A549. The series can be described thus: cells. Conditions: Homo sapiens, A549, 72 h.
Description: Antiproliferative activity against human A549 cells assessed as inhibition of cell growth incubated for 72 hrs by CCK-8 assay
The test system of series [4] is NCI-H460. The series can be described thus: cells. Conditions: Homo sapiens, NCI-H460, 72 h.
Description: Antiproliferative activity against human NCI-H460 cells assessed as inhibition of cell growth incubated for 72 hrs by CCK-8 assay
Series [5] concerns MCF7. The series can be described thus: cells. The conditions noted are these: Homo sapiens, MCF7, 72 h.
Description: Antiproliferative activity against human MCF7 cells assessed as inhibition of cell growth incubated for 72 hrs by CCK-8 assay
Series [6] has as its system MGC-803. The experiment in a line: cells. Conditions: Homo sapiens, MGC-803, 72 h.
Description: Antiproliferative activity against human MGC-803 cells assessed as inhibition of cell growth incubated for 72 hrs by CCK-8 assay
Series [7] can be described thus: in vitro. The conditions noted are these: human, THLE-2 cells.
Description: Antiproliferative activity against human THLE-2 cells assessed as inhibition of cell growth incubated for 72 hrs by CCK-8 assay

In series [1], `Cc1ccc(CS(=O)(=O)n2cc(C(=O)N3CCC(N)CC3)c3cc(-c4ccc(C#N)cc4)c(-c4ccc(C)cc4)cc32)cc1` yielded an IC50 of 1.74 µM.
As to `Cc1ccc(-c2cc3[nH]cc(C(=O)N4CCC(N)CC4)c3cc2-c2ccc(C#N)c(F)c2)cc1`, the IC50 in series [2] worked out at 13.4 µM; in series [1] it was 0.087 µM; in series [3] it was 2.7 µM; in series [4], 17.7 µM; in series [5] it was 14.7 µM; in series [6], 12.1 µM. Besides, the half-inhibitory concentration (IC50) at 72 h in series [7] worked out at 13.3 µM.
The molecule `Cc1ccc(Cn2cc(C(=O)N3CCC(N)CC3)c3cc(-c4ccc(C#N)cc4)c(-c4ccc(C)cc4)cc32)cc1` showed an IC50 in series [1] of 0.858 µM.
Turning to `N#Cc1ccc(-c2cc3c(C(=O)N4CCC(N)CC4)c[nH]c3cc2-c2ccoc2)cc1`, the half-inhibitory concentration (IC50) in series [1] stood at 0.969 µM.
`Cc1ccc(-c2cc3[nH]cc(C(=O)NC4CCCNC4)c3cc2-c2ccc(C#N)cc2)cc1` (stereo unspecified) registered an IC50 in series [1] of 0.4 µM.
On to `Cc1ccc(-c2cc3[nH]cc(C(=O)N[C@H]4CC[C@H](N)CC4)c3cc2-c2ccc(C#N)cc2)cc1`, for which the IC50 in series [1] was 0.65 µM.
For the molecule `Cc1ccc(-c2cc3[nH]cc(C(=O)N4CCC(N)CC4)c3cc2-c2ccc(C#N)cc2)c(C)c1`, the IC50 in series [1] came to 0.118 µM.
As to `Cc1ccc(-c2cc3c(cc2-c2ccc(C#N)cc2)c(C(=O)N2CCC(N)CC2)cn3C(C)C)cc1`, the IC50 in series [1] turned out to be 0.015 µM.
For the molecule `N#Cc1ccc(-c2cc3c(C(=O)N4CCC(N)CC4)c[nH]c3cc2-c2ccc(C(F)(F)F)cc2)cc1`, in series [1], the IC50 is 0.897 µM.
For the molecule `Cc1ccc(-c2cc3c(cc2-c2ccc(C#N)cc2)c(C(=O)N2CCC(N)CC2)cn3Cc2ccc(Cl)cc2)cc1`, inhibition in series [1] was half-maximal at 0.691 µM (IC50).
Turning to `Cc1ccc(-c2cc3[nH]cc(C(=O)N4CCC(N)CC4)c3cc2-c2ccc(C(N)=O)cc2)cc1`, the IC50 in series [1] came to 22 µM.
In the case of `Cc1ccc(-c2cc3[nH]cc(C(=O)N4CCC[C@@H](N)C4)c3cc2-c2ccc(C#N)cc2)cc1`, the IC50 in series [1] was determined as 0.339 µM.
On the same count and under the same terms, for `Cc1ccc(-c2cc3c(cc2-c2ccc(C#N)cc2)c(C(=O)N2CCC(N)CC2)cn3Cc2ccc(Br)cc2)cc1` the value was 1 µM.
`Cc1ccc(-c2cc3[nH]cc(C(=O)N4CCC(N)CC4)c3cc2-c2ccc([N+](=O)[O-])cc2)cc1` showed an IC50 in series [1] of 20 µM.
As to `Cc1ccc(-c2cc3[nH]cc(C(=O)NCC4CCNCC4)c3cc2-c2ccc(C#N)cc2)cc1`, the IC50 in series [2] came to 12.6 µM; in series [1], 0.06 µM; in series [3] it was 15.4 µM; in series [4], 9.4 µM; in series [5] it was 8.5 µM; in series [6] it was 9.8 µM. In series [7], the IC50 at 72 h was found to be 16.1 µM.
With `Cc1ccc(-c2cc3[nH]cc(C(=O)N4CCC(CN)CC4)c3cc2-c2ccc(C#N)cc2)cc1`, in series [1], the IC50 is 0.135 µM.
As for `CCc1ccc(-c2cc3[nH]cc(C(=O)N4CCC(N)CC4)c3cc2-c2ccc(C#N)cc2)cc1`, the IC50 in series [2] amounted to 14.7 µM; in series [1] it was 0.123 µM; in series [3], 17.3 µM; in series [4] it was 26.9 µM; in series [5], 14.7 µM; in series [6], 12.9 µM. Besides, the IC50 at 72 h in series [7] is 29.6 µM.
For `Cc1ccc(-c2cc3[nH]cc(C(=O)N4CCC(N)CC4)c3cc2-c2ccc(O)cc2)cc1`, the IC50 in series [1] turned out to be 5 µM.
Molecule `N#Cc1ccc(-c2cc3c(C(=O)N4CCC(N)CC4)c[nH]c3cc2-c2cncnc2)cc1` displayed a half-inhibitory concentration (IC50) in series [1] of 0.954 µM.
Same read-out and setting: for `Cc1ccc(-c2cc3[nH]cc(C(=O)NCCN)c3cc2-c2ccc(C#N)cc2)cc1` the value was 0.18 µM; for `CC(=O)Nc1ccc(S(=O)(=O)n2cc(C(=O)N3CCC(N)CC3)c3cc(-c4ccc(C#N)cc4)c(-c4ccc(C)cc4)cc32)cc1`, 0.165 µM; for `Cc1ccc(-c2cc3c(cc2-c2ccc(C#N)cc2)c(C(=O)N2CCC(N)CC2)cn3S(=O)(=O)c2ccc(C#N)cc2)cc1`, 0.11 µM.
Consider `Cc1ccc(-c2cc3[nH]cc(C(=O)N4CCC(N)CC4)c3cc2-c2ccc(C#N)cc2)c(F)c1`, for which the IC50 in series [2] amounted to 27 µM; in series [1], 0.063 µM; in series [3], 2.3 µM; in series [4], 28.3 µM; in series [5], 16.9 µM; in series [6] it was 24 µM. In series [7], this molecule returned an IC50 at 72 h of 27.8 µM.
`Cc1ccc(-c2cc3[nH]cc(C(=O)N4CCC(N)CC4)c3cc2-c2ccc(C#N)nc2)cc1` gave an IC50 in series [1] of 0.114 µM.
Molecule `Cc1ccc(-c2cc3c(cc2-c2ccc(C#N)cc2)c(C(=O)N2CCC(N)CC2)cn3Cc2cccc(Br)c2)cc1` yielded an IC50 in series [1] of 0.554 µM.
`Cc1ccc(-c2cc3[nH]cc(C(=O)NCC4CCNC4)c3cc2-c2ccc(C#N)cc2)cc1` (stereo unspecified) returned an IC50 in series [1] of 0.208 µM.
Take `Cc1ccc(-c2cc3[nH]cc(C(=O)N4CCC(N)CC4)c3cc2-c2ccc(C#N)cc2)cc1`: the IC50 in series [2] worked out at 14.2 µM; in series [1], 0.053 µM; in series [3] it was 4.2 µM; in series [4], 27.6 µM; in series [5], 10 µM; in series [6], 9.3 µM. The same molecule gave an IC50 at 72 h in series [7] of 23.9 µM.
With `Cc1ccc(-c2cc3c(cc2-c2ccc(C#N)cc2)c(C(=O)N2CCC(N)CC2)cn3Cc2cccc(C#N)c2)cc1`, the IC50 is 6.6 µM in series [2]; 0.161 µM in series [1]; 3.4 µM in series [3]; 7.7 µM in series [4]; 6.7 µM in series [5]; 4.6 µM in series [6]. For the same molecule, in series [7], the IC50 at 72 h came out at 5.8 µM.
`Cc1ccc(-c2cc3[nH]cc(C(=O)NC4CCNC4)c3cc2-c2ccc(C#N)cc2)cc1` (stereo unspecified) showed a concentration for half-maximal inhibition (IC50) in series [1] of 0.369 µM.
Still for that read-out and setting: as for `COc1ccc(-c2cc3[nH]cc(C(=O)N4CCC(N)CC4)c3cc2-c2ccc(C#N)cc2)c(F)c1`, the figure is 0.208 µM.
Take `Cc1ccc(-c2cc3[nH]cc(C(=O)N4CCC[C@H](N)C4)c3cc2-c2ccc(C#N)cc2)cc1`: the IC50 in series [2] stood at 11.4 µM; in series [1] it was 0.085 µM; in series [3], 8.8 µM; in series [4], 16.2 µM; in series [5], 6.1 µM; in series [6] it was 9 µM. Moreover, in series [7], the IC50 at 72 h came to 17.5 µM.
Take `Cc1ccc(-c2cc3[nH]cc(C(=O)N4CCC(N)CC4)c3cc2-c2ccc(C#N)cc2)cc1F`: the IC50 in series [2] was determined as 16.6 µM; in series [1], 0.103 µM; in series [3], 3.5 µM; in series [4], 29.3 µM; in series [5], 10.2 µM; in series [6], 15.6 µM. For the same molecule, in series [7], the IC50 at 72 h stood at 29.9 µM.
In the case of `Cc1cc(C)cc(-c2cc3[nH]cc(C(=O)N4CCC(N)CC4)c3cc2-c2ccc(C#N)cc2)c1`, the 50% inhibitory concentration (IC50) turned out to be 10 µM in series [2]; 0.061 µM in series [1]; 5.3 µM in series [3]; 13.6 µM in series [4]; 7 µM in series [5]; 8.8 µM in series [6]. In series [7], inhibition was half-maximal at 11.8 µM (IC50 at 72 h).
With `Cc1ccc(-c2cc3[nH]cc(C(=O)N4CCC(N)CC4)c3cc2-c2ccc(C#N)cc2)cc1C`, the IC50 in series [2] amounted to 13.7 µM; in series [1], 0.05 µM; in series [3] it was 4.3 µM; in series [4], 18.6 µM; in series [5], 14.7 µM; in series [6] it was 15.6 µM. Moreover, the midpoint of inhibition in series [7], the IC50 at 72 h, lay at 20.8 µM.
`Cc1ccc(-c2cc3[nH]cc(C(=O)N4CCC(N)CC4)c3cc2-c2ccc(S(N)(=O)=O)cc2)cc1` yielded an IC50 in series [1] of 23 µM.
Turning to `Cc1ccc(-c2cc3c(cc2-c2ccc(C#N)cc2)c(C(=O)N2CCC(N)CC2)cn3C)cc1`, the IC50 was 7.1 µM in series [2]; 0.012 µM in series [1]; 5.5 µM in series [3]; 4.7 µM in series [4]; 7.1 µM in series [5]; 5.3 µM in series [6]. In addition, 7.3 µM corresponded to half-maximal inhibition in series [7] (IC50 at 72 h).
In series [1], `Cc1ccc(-c2cc3[nH]cc(C(=O)NC4CCNCC4)c3cc2-c2ccc(C#N)cc2)cc1` returned an IC50 of 0.335 µM.
Regarding `Cc1ccc(-c2cc3c(cc2-c2ccc(C(N)=O)cc2)c(C(=O)NC2CCNCC2)cn3C)cc1`, in series [1], the IC50 is 20 µM.
Still for that read-out and setting: for `Cc1ccc(-c2cc3[nH]cc(C(=O)NCCCN)c3cc2-c2ccc(C#N)cc2)cc1` the value was 0.15 µM.
In series [1], `Cc1ccc(-c2cc3[nH]cc(C(=O)N4CCC(N)CC4)c3cc2-c2ccc(C#N)cc2C)cc1` registered an IC50 of 0.6 µM.
`Cc1ccc(-c2cc3[nH]cc(C(=O)N4CCNCC4)c3cc2-c2ccc(C#N)cc2)cc1`: the half-inhibitory concentration (IC50) stood at 15.3 µM in series [2]; 0.061 µM in series [1]; 2.3 µM in series [3]; 22.3 µM in series [4]; 12.3 µM in series [5]; 9.8 µM in series [6]. Besides, it took 19.1 µM to reach half-maximal inhibition in series [7] (IC50 at 72 h).
For the molecule `CCn1cc(C(=O)N2CCC(N)CC2)c2cc(-c3ccc(C#N)cc3)c(-c3ccc(C)cc3)cc21`, in series [1], the IC50 amounted to 0.028 µM.
Consider `Cc1ccc(-c2cc3[nH]cc(C(=O)NC4CCNC4)c3cc2-c2ccc(C(N)=O)cc2)cc1` (stereo unspecified), for which the 50% inhibitory concentration (IC50) in series [1] is 24 µM.
`Cc1ccc(-c2cc3c(cc2-c2ccc(C#N)cc2)c(C(=O)N2CCC(N)CC2)cn3C2CC2)cc1` had a concentration for half-maximal inhibition (IC50) in series [1] of 0.018 µM.
